Each structure is given as a SMILES string.

Here are results for 21 compounds from ChEMBL document CHEMBL3608267, “Identification of dialkyl diacetylene diols with potent cancer chemopreventive activity” (Bioorg Med Chem Lett, 2015).

For data set [1], the target named is NAD(P)H dehydrogenase [quinone] 1 (Mus musculus) (UniProt Q64669). In words: Induction of NQO1 in mouse Hepa-1c1c7 cells assessed as drug concentration required to double induction by quinone reductase assay. It is filed as cell-based.
Data set [2] is described as follows: Chemopreventive index, ratio of IC50 for mouse Hepa-1c1c7 cells to drug concentration required to double induction of NQO1 in mouse Hepa-1c1c7 cells.
Data set [3] can be described thus: Toxicity against mouse Hepa-1c1c7 cells assessed as inhibition of cell proliferation. The class given is cell-based.

NAD(P)H dehydrogenase [quinone] 1 (Mus musculus), sequence (Q64669 whole entry): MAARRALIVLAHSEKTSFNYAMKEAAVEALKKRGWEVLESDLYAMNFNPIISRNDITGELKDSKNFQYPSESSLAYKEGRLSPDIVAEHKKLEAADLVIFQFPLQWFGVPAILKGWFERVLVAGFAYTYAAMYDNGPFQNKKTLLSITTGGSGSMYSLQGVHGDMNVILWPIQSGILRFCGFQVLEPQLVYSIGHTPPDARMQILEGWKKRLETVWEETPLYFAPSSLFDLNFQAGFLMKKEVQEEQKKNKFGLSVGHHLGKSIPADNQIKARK

For `CCCCCC(O)C#CC#CC(O)CCCCC` (mixture of isomers), in data set [1], the CD was determined as 3.1 µM. The Ratio in data set [2] is on record as above 16. The IC50 in data set [3] was above 50 µM.
As for `C[S+]([O-])CCCCN=C=S` (stereo not drawn) [SULFORAPHANE], the CD in data set [1] stood at 0.4 µM. In data set [2], the Ratio was determined as 27. The half-inhibitory concentration (IC50) in data set [3] is 11 µM.
Consider `CCCCCCCCCC(O)C#CC#CC(O)C1CCCCC1` (stereo not drawn), for which the CD in data set [1] was 11 µM. In addition, the Ratio in data set [2] turned out to be 4. The half-maximal inhibitory concentration (IC50) in data set [3] worked out at 44 µM.
Turning to `C=CCCCCC/C=C\[C@@H](O)C#CC#C[C@@H](O)[C@H](C)O`, the CD in data set [1] is 8.2 µM. Besides, the Ratio in data set [2] is given as above 6.1. Moreover, the IC50 in data set [3] was above 50 µM.
The matching figures for `CC(C)CC(O)C#CC#CC(O)C1CCCCC1` (stereo not drawn): 5.6 µM, above 8.9 and above 50 µM.
Take `CCCCC[C@H](O)C#CC#CCO`: in data set [1], the CD turned out to be 3.2 µM. In addition, the Ratio in data set [2] was above 31. In data set [3], the IC50 is above 100 µM.
`OC(C#CC#CC(O)C1CCCCC1)C1CCCCC1` (stereo not drawn): in data set [1], the CD stood at 8.4 µM. In addition, in data set [2], the Ratio is above 6. The 50% inhibitory concentration (IC50) in data set [3] is above 50 µM.
Take `CCCCCC(O)C#CC#CC(O)CCC` (stereo not drawn): in data set [1], the CD came out at 0.8 µM. In data set [2], the Ratio is listed as 24. Also, the IC50 in data set [3] amounted to 19 µM.
As to `CCCC(O)C#CC#CC(O)C1CCCCC1` (stereo not drawn), the CD in data set [1] came out at 6.2 µM. The Ratio in data set [2] was above 8.1. Further, the IC50 in data set [3] is above 50 µM.
The corresponding values for `CCCCCCCCCC(O)C#CC#CC(O)CCCCCCCCC` (stereo not drawn) are 26 µM, 1 and 26 µM.
In the case of `CCCCC[C@H](O)C#CC#C[C@H](O)CCCCC`, the CD in data set [1] was found to be 4.7 µM. Also, the Ratio in data set [2] is reported as 14. Besides, the half-maximal inhibitory concentration (IC50) in data set [3] was found to be 68 µM.
Consider `CCCC(O)C#CC#CCO` (stereo not drawn), for which the CD in data set [1] is 6 µM. In addition, the Ratio in data set [2] was above 8.3. Moreover, the 50% inhibitory concentration (IC50) in data set [3] was above 50 µM.
Take `CCCCCC(O)C#CC#CC(O)CC(C)C` (stereo not drawn): in data set [1], the CD was 1.3 µM. The Ratio in data set [2] was 32. Besides, the IC50 in data set [3] worked out at 41 µM.
Consider `CCCCCCCCCC(O)C#CC#CC(O)CCC` (stereo not drawn), for which the CD in data set [1] amounted to 4.2 µM. The Ratio in data set [2] stood at 7.2. Moreover, in data set [3], the IC50 turned out to be 30 µM.
The matching figures for `CCCCCCCCCC(O)C#CC#CC(O)CCCCC` (stereo not drawn): 2.6 µM, 4.6 and 12 µM.
For the compound `CCCCCCCCCC(O)C#CC#CC(O)CC(C)C` (stereo not drawn), in data set [1], the CD turned out to be 10 µM. Further, the Ratio in data set [2] is above 5. Besides, in data set [3], the IC50 is above 50 µM.
The corresponding values for `CCCCCC(O)C#CC#CC(O)C1CCCCC1` (mixture of isomers) are 3.2 µM, above 16 and above 50 µM.
With `CCCCC[C@@H](O)C#CC#CCO`, the CD in data set [1] turned out to be 2.3 µM. Moreover, the Ratio in data set [2] is recorded as above 43. Besides, the concentration for half-maximal inhibition (IC50) in data set [3] is above 100 µM.
As for `CCCCCC(O)C#CC#CCO` (racemic), the CD in data set [1] stood at 4.7 µM. Moreover, in data set [2], the Ratio is on record as above 11. Also, the IC50 in data set [3] was above 50 µM.
Regarding `CCCCC[C@@H](O)C#CC#C[C@H](O)CCCCC`, in data set [1], the CD was determined as 0.6 µM. Moreover, the Ratio in data set [2] came to 20. In addition, the IC50 in data set [3] was 12 µM.
In the case of `CCCCC[C@H](O)C#CC#C[C@@H](O)CCCCC`, in data set [1], the CD amounted to 2.6 µM. In addition, the Ratio in data set [2] is 18. Moreover, in data set [3], the IC50 is 47 µM.

Usually IC50 stands for the concentration that inhibits the measured activity by half.
